Source: patent US8298781B2, “Compositions and methods for characterizing and regulating olfactory sensation” (Duke University, priority 2007, dated 2012)
Residue numbers refer to the chain shown, from its start.

Columns and labels:
Format in all cases: cell-based
OR7D4 RT = molecular target: T1, OR7D4 RT (Homo sapiens, UniProt Q8NG98); assay: Luciferase assay of odorant receptor activation in Hana3A cells, OR7D4 RT; design: dose or concentration left out as unconfirmed; settings: for response of OR7D4 RT (normalized luciferase), ligand specificity panel: panel of 66 odors and 2 solvents at or 1,130,000 dilution
T1 construct: expressed in transfected cells; host or cells: Hana3A (HEK293T-derived)
T1 sequence (Q8NG98 1-312): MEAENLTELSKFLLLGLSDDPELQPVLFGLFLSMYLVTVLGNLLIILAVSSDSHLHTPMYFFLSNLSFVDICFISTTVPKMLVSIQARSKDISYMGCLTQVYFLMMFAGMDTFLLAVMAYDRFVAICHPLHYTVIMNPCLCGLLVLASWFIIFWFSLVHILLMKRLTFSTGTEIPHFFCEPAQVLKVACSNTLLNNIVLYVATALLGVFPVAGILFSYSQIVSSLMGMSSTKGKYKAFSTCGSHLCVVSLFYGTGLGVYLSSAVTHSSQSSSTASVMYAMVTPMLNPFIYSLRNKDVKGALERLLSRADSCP
Text: Heterologous expression of human odorant receptors. 423 human odorant receptors including 337 predicted functional receptors were cloned. Odorant receptors that contained the first 20 amino acid of human rhodopsin (see, e.g., Krautwurst, D., et al., Cell 95, 917-926 (1998); herein incorporated by reference in its entirety) in pCl (Promega) were expressed in the Hana3A cell line along with a short form of mRTP1, RTP1S, (M37 to the C-terminal end), which enhanced functional expression of the odorant receptors. For immunocytochemistry, cells were fixed, permeabilized and incubated with monoclonal anti-rhodopsin antibody, 4D2 (see, e.g., Laird, D. W., et al., Invest Opthalmol Vis Sci 29.419428 (1988); herein incorporated by reference in its entirety), followed by Cy3-conjugated donkey anti-mouse IgG (Jackson Immunologicals). For FACS analysis, PE-conjugated donkey anti-mouse IgG (Jackson Immunologicals) was used. Western blot analysis was performed according to Mini-Protean 2 Cell (Bio-Rad) protocol. ECL (Amersham) was used for detecting proteins on membranes. After the initial exposure, the membrane was incubated with stripping buffer (25 mM Glycine-HCl [pH2], 1% SDS, 25 mM Glycine, 0.036N HCl, 1% SDS) and incubated with rabbit anti-GFP (Invitrogen). Luciferase assays were performed as described (see, e.g., Saito, H., et al., Cell 119:679-691 (2004); incorporated herein by reference in its entirety). […]
(§1) Luciferase assay and data analysis. […] Luminescence was measured using Wallac Victor 1420 (Perkin-Elmer). Normalized luciferase activity was calculated by the formula [luc(N)-luc(lowest)]/luc(highest)/RL (N) where luc(N)=luminescence of luciferase of a certain well; luc(lowest)=lowest luminescence of luciferase of a plate or a set of plates; luc(highest)=highest luminescence of luciferase of a plate or a set of plates; RL(N)=luminescence of Renilla luciferase of a certain well. Data was analyzed with Microsoft Excel and GraphPad Prism 4.

OR7D4 WM = molecular target: T2, OR7D4 WM (Homo sapiens, UniProt Q8NG98, R88W/T133M); assay: Luciferase assay of odorant receptor activation in Hana3A cells, OR7D4 WM; settings: variant R88W/T133M, relative to OR7D4 RT
T2 construct: expressed in transfected cells; host or cells: Hana3A (HEK293T-derived)
T2 sequence (Q8NG98 1-312 R88W/T133M): T1 sequence (Q8NG98 1-312) with R88W, T133M
Text: (§2) Heterologous expression of human odorant receptors. 423 human odorant receptors including 337 predicted functional receptors were cloned. Odorant receptors that contained the first 20 amino acid of human rhodopsin (see, e.g., Krautwurst, D., et al., Cell 95, 917-926 (1998); herein incorporated by reference in its entirety) in pCl (Promega) were expressed in the Hana3A cell line along with a short form of mRTP1, RTP1S, (M37 to the C-terminal end), which enhanced functional expression of the odorant receptors. For immunocytochemistry, cells were fixed, permeabilized and incubated with monoclonal anti-rhodopsin antibody, 4D2 (see, e.g., Laird, D. W., et al., Invest Opthalmol Vis Sci 29.419428 (1988); herein incorporated by reference in its entirety), followed by Cy3-conjugated donkey anti-mouse IgG (Jackson Immunologicals). […]
as §1

OR7D4 P79L = molecular target: T3, OR7D4 P79L (Homo sapiens, UniProt Q8NG98, P79L); assay: Luciferase assay dose response, OR7D4 P79L; settings: all concentrations tested
T3 construct: expressed in transfected cells; host or cells: Hana3A (HEK293T-derived)
T3 sequence (Q8NG98 1-312 P79L): T1 sequence (Q8NG98 1-312) with P79L
Text: as §2, §1

| Compound | response of OR7D4 RT (normalized luciferase), ligand specificity panel (OR7D4 RT) | function of OR7D4 WM in vitro in the presence of the odor (OR7D4 WM) | dose-response function of OR7D4 P79L in vitro (OR7D4 P79L) | response of OR7D4 in screen of human odorant receptor panel (OR7D4 RT; Hana3A cells, 337 human odorant receptors, stimulated with androstenone) |
| --- | --- | --- | --- | --- |
| C[C@@]12C=CC[C@H]1[C@@H]1CCC3=CC(=O)CC[C@]3(C)[C@H]1CC2 [androstadienone, androsta-4,16-dien-3-one] | responded selectively | severely impaired olfactory function | severely impaired function | – |
| C[C@]12CCC(=O)C[C@@H]1CC[C@@H]1[C@@H]2CC[C@]2(C)C=CC[C@@H]12 [androstenone, 5α-androst-16-en-3-one] | responded selectively | severely impaired olfactory function | severely impaired function | robust responses |
